The values below come from patent publication US11951088B2, “Fatty acid analogs and their use in the treatment of conditions related to metabolic syndrome” (Epitracker, Inc., priority 2017, dated 2024).

For data set [1], the system named is 12 human primary cell-based systems. The experiment in a line: BioMAP Diversity Plus panel, biomarker readouts. The conditions noted are these: compared to C15:0-treated systems and non-treated controls; 740 nm and 2.2, 6.7 and 20 μM. From the text: This study examined and compared activities of a saturated free fatty acid (C15:0) and three substituents (2-methyl-, 2,2-dimethyl-, and 1-tetrazole-C15:0) across 12 human primary cell-based systems as part of DiscoverX's BioMAP Diversity Plus program. These systems are designed to model complex human tissue and disease biology of the vasculature, skin, lung, and inflammatory tissues. Quantitative measurements of biomarker activities across this broad panel, along with comparative analysis of biological activities of known bioactive agents were used to predict and compare the efficacy and function of the four compounds.
BioMAP panels consist of human primary cell-based systems designed to model different aspects of the human body in an in vitro format. The 12 systems in the Diversity PLUS panel allow test agent characterization in an unbiased way across a broad set of systems modeling various human disease states. BioMAP systems are constructed with one or more primary cell types from healthy human donors, with stimuli (such as cytokines or growth factors) added to capture relevant signaling networks that naturally occur in human tissue or pathological conditions. Vascular biology is modeled in both a Th1 (3C system) and a Th2 (4H system) inflammatory environment, as well as in a Th1 inflammatory state specific to arterial smooth muscle cells (CASM3C system). Additional systems recapitulate aspects of the systemic immune response including monocyte-driven Th1 inflammation (LPS system) or T cell stimulation (SAg system), chronic Th1 inflammation driven by macrophage activation (lMphg system) and the T cell-dependent activation of B cells that occurs in germinal centers (BT system). The BE3C system (Th1) and the BF4T system (Th2) represent airway inflammation of the lung, while the MyoF system models myofibroblast-lung tissue remodeling. Lastly, skin biology is addressed in the KF3CT system modeling Th1 cutaneous inflammation and the HDF3CGF system modeling wound healing.
Each test agent generates a signature BioMAP profile that is created from the changes in protein biomarker readouts within individual system environments. Biomarker readouts (7-17 per system) are selected for therapeutic and biological relevance, are predictive for disease outcomes or specific drug effects and are validated using agents with known mechanism of action (MoA). Each readout is measured quantitatively by immune-based methods that detect protein (e.g., ELISA) or functional assays that measure proliferation and viability. BioMAP readouts are diverse and include cell surface receptors, cytokines, chemokines, matrix molecules and enzymes.

Data set [2] can be described thus: 24-hour plasma pharmacokinetics after single oral dose in rats. The conditions noted are these: for bioavailability: po. The format is in vivo.
Data set [3] concerns C57BL/6J mice fed a high fat diet. As to the kind of experiment: diet-induced obese mice treated daily by gastric gavage for 12 weeks. The format is in vivo. The conditions noted are these: for Cholesterol / Glucose / IL-6 / Insulin / LDL-C / MCP-1 / TNF-α: Day 84, 6 h fasted. How it is done:
Forty C57BL/6J mice were fed a high fat diet (HFD) (D12492, 60% kcals fat) for 8 weeks. Study mice were then divided into the following four groups of ten: vehicle controls, low dose C17:0-treated (5 mg/kg body weight), high-dose C17:0-treated (50 mg/kg body weight), and low-dose C15:0-treated (5 mg/kg body weight).
Table 1 provides comparisons of cardiometabolic effects in diet-induced obese mice treated daily with oral pentadecanoic acid (5 mg/kg BW), heptadecanoic acid (5 and 50 mg/kg BW) for 12 weeks compared to vehicle controls. “Results” values are based on 6 h fasted samples.

In another data set the target is T1, human PPAR-α (Homo sapiens, UniProt Q07869).
T1 sequence (Q07869 1-468): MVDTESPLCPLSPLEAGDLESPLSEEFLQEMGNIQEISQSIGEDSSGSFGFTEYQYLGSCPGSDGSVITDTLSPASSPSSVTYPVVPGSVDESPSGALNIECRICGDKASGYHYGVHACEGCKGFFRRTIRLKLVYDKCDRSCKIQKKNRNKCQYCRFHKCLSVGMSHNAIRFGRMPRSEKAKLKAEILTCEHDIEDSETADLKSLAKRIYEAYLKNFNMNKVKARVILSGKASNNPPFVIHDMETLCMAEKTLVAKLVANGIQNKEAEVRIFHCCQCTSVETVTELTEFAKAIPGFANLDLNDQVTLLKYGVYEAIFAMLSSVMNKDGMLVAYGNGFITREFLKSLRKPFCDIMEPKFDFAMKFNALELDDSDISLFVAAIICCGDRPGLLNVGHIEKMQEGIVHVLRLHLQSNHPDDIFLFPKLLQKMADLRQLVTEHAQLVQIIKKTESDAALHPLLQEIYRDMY
The experiment in a line: PathHunter NHR Protein Interaction assay, PPAR-α agonist activity (CHO cells).

Another data set has as its target T2, human PPAR-γ (Homo sapiens, UniProt P37231).
T2 sequence (P37231 1-505): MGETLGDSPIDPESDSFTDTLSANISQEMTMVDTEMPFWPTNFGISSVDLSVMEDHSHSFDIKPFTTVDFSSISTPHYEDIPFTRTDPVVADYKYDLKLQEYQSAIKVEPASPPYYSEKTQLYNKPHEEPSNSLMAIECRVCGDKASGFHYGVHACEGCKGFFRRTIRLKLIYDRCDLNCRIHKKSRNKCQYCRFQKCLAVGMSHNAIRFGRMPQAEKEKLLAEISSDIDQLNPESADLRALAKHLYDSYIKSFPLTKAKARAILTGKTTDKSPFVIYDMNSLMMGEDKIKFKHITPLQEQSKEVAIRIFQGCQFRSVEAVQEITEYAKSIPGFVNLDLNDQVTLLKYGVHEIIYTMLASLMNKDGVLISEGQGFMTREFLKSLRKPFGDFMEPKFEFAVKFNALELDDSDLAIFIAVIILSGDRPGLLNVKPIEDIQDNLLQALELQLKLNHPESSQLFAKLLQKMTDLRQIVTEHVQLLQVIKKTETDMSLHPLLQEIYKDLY
As to the kind of experiment: PathHunter NHR Protein Interaction assay, PPAR-γ agonist activity (CHO cells).

The target of a further data set is T3, human PPAR-δ (Homo sapiens, UniProt Q03181).
T3 sequence (Q03181 1-441): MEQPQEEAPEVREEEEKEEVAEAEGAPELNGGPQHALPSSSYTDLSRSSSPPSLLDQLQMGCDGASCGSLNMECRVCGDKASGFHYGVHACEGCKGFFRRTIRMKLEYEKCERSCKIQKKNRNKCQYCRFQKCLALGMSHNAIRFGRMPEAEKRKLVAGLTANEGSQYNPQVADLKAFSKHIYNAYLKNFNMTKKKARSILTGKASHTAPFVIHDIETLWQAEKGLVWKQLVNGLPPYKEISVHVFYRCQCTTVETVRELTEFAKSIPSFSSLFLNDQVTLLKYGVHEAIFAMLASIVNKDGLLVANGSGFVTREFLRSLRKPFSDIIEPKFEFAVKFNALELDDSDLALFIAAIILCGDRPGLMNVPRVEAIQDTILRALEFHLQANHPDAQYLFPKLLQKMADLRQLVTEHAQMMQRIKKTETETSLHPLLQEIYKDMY
As to the kind of experiment: PathHunter NHR Protein Interaction assay, PPAR-δ agonist activity (CHO cells).

Where [4] appears, read: CHO, read-out: Maximum Response.
The mark [5] stands for this setting: Half Maximal Effective Concentration (EC50), PPAR-α, Table 5.

Broadly, the AUC(0-t) is exposure summed from dosing to a finite time, without extrapolation to infinity. A lower AUC(0-t) goes with less exposure. For orientation: Cmax means the maximum level reached in the sampled fluid or tissue.

Molecules are shown by their SMILES. Where two headings read alike, the source gives them in different places.

Procedure for human PPAR-α: (§1) PPAR-α, PPAR-δ, and PPAR-γ agonist activities were measured using PathHunter Nuclear Hormone Receptor (NHR) Protein Interaction (Pro) assays (DiscoverX, Freemont, California). Briefly, Chinese hamster ovary (CHO) cell lines were used to monitor the activation of PPAR-α, PPAR-δ, and PPAR-γ in a homogenous, non-imaging assay format using Enzyme Fragment Complementation (EFC). The NHR Pro assay was based on detection of protein-protein interactions between activated, full length PPAR-α, PPAR-δ, and PPAR-γ proteins and a nuclear fusion protein containing Steroid Receptor Co-activator Peptide (SRCP) domains with one or more canonical LXXLL interaction motifs. PPAR-α, PPAR-δ, and PPAR-γ were tagged with the ProLink component of the EFC assay system, and the SRCP domain was fused to the enzyme acceptor component (EA) expressed in the nucleus. When bound by ligand, PPAR-α, PPAR-δ, or PPAR-γ migrated to the nucleus and recruited the SRCP domain, whereby complementation occurred, generating a unit of active β-Galactosidase (β-Gal) and production of chemiluminescent signal. […] Percentage activity was calculated using the following formula: % Activity=100%×(mean RLU of test sample−mean RLU of vehicle control)/(mean MAX control ligand−mean RLU of vehicle control).
Procedure for human PPAR-γ: as §1
Procedure for human PPAR-δ: as §1

For the compound `CCCCCCCCCCCCCC(C)(C)C(=O)O` [2,2-dimethyl-C15:0, 2,2-dimethylpentadecanoic acid], in data set [1], the CD38 result is recorded as “lower”, the CD99 result is given as “lower”, the ICAM-1 result is “lower” and the IL-1α result is recorded as “lower”. Besides, in data set [1], the IL-8 result is recorded as “lower”, the IP-10 entry is recorded as “lower”, the IP-18 entry is given as “lower” and the MCP-1 entry was “lower”. Further, in data set [1], the MIG entry is on record as “lower”, the MMP-1 result is recorded as “lower”, the MMP-3 entry is listed as “lower” and the MMP-9 result is “lower”. For the same compound, in data set [1], the PAI-1 entry is on record as “lower”, the VCAM-1 result is on record as “lower”, the eotaxin-3 entry is recorded as “lower” and the “keratin 8/18” value is “lower”. Besides, the tissue factor entry in data set [1] is “lower”.

As to `CCCCCCCCCCCCCC(C)C(=O)O` (stereo not drawn) [2-methyl-C15:0, 2-methylpentadecanoic acid], in data set [1], the CD40 entry is recorded as “lower”, the ICAM-1 entry was “lower”, the IL-1α entry was “lower” and the IL-8 entry is “lower”. In data set [1], the IP-10 entry is given as “lower”, the IP-18 result is “lower”, the MCP-1 entry is recorded as “lower” and the MIG result was “lower”. In addition, in data set [1], the MMP-1 result is “lower”, the MMP-3 entry was “lower”, the MMP-9 result is “lower” and the PAI-1 entry is reported as “lower”. Further, in data set [1], the VCAM-1 result was “lower”, the eotaxin-3 result was “lower”, the “keratin 8/18” value is listed as “lower” and the “secreted IgG” value is “lower”. Moreover, in data set [2] (5 mg/kg single oral dose), the Cmin was determined as 660 ng/mL and the Tlast is listed as 24 h. In data set [2] (35 mg/kg single oral dose), the Cmin is 3790 ng/mL and the Tlast was determined as 24 h. The same compound yielded an AUC(0-t) in data set [2] (rat, 5 mg/kg single oral dose) of 28.4 µg·h/mL. The Cmax in data set [2] (rat, 5 mg/kg single oral dose, deuterated form) amounted to 3590 ng/mL. In data set [2] (rat, 35 mg/kg single oral dose), this compound gave an area under the curve AUC(0-t) of 182 µg·h/mL. For the same compound, the bioavailability in data set [2] (rat, 5 mg/kg, 5 mg/kg single oral dose, estimate using an AUC of 15 for a 1 mg/kg IV arm, read-out: % F) is 37.8%. In data set [2] (rat, 35 mg/kg, 35 mg/kg single oral dose, estimate using an AUC of 15 for a 1 mg/kg IV arm, read-out: % F), the bioavailability was 34.7%. In data set [2] (rat, 35 mg/kg, oral, rats, read-out: estimated plasma % F (bioavailability)), the bioavailability is roughly 35%.

For the compound `CCCCCCCCCCCCCCCCC(=O)O` [C17:0, heptadecanoic acid], the “metabolic syndrome compared to vehicle controls (in words)” value in data set [3] (12 weeks daily oral, C15:0 5 mg/kg, C17:0 5 and 50 mg/kg) is recorded as “trended toward attenuated metabolic syndrome”. In data set [3] (5 mg/kg daily oral), the Cholesterol amounted to 197 ± 31 mg/dL, the Glucose is 296 ± 23 mg/dL, the IL-6 was 42 ± 40 pg/mL and the Insulin worked out at 7.4 ± 4.8 ng/mL. In data set [3] (5 mg/kg daily oral), this compound gave an LDL-C of 9 ± 3 mg/dL, an MCP-1 of 86 ± 30 pg/mL and a TNF-α of 3.7 ± 1.9 pg/mL. In data set [3] (50 mg/kg daily oral), the Cholesterol is 187 ± 44 mg/dL, the Glucose amounted to 282 ± 31 mg/dL, the IL-6 came out at 38 ± 32 pg/mL and the Insulin was found to be 6.8 ± 3.5 ng/mL. Also, in data set [3] (50 mg/kg daily oral), the LDL-C was found to be 8 ± 3 mg/dL, the MCP-1 amounted to 53 ± 32 pg/mL and the TNF-α came out at 1.5 ± 1.5 pg/mL. At human PPAR-α (EC50, PPAR-alpha, Table 4), this compound had an EC50 greater than 100 µM. The compound further had an EC50 on human PPAR-γ greater than 100 µM.

As for `CCCCCCCCCCCCCCCC(=O)O` [C16:0, palmitic acid], the values for the Emax on human PPAR-α (setting [4]) and at human PPAR-γ (setting [4]) were 56.1% and 4.68%, respectively. Further, the EC50 was 27.3 µM at human PPAR-α (EC50, PPAR-alpha, Table 4); 27.3 µM on human PPAR-α (EC50, PPAR-alpha, Table 7); 27.3 µM on human PPAR-α (setting [5]); greater than 100 µM at human PPAR-γ; greater than 100 µM at human PPAR-γ (PPAR-gamma, Table 7); greater than 100 µM at human PPAR-γ (read-out: Half Maximal Effective Concentration (EC50), PPAR-γ, Table 5).

With `CCCCCCCCCCCCCC(CC)C(=O)O` (stereo not drawn) [2-ethyl-C15:0, 2-ethylpentadecanoic acid], the EC50 was 1.2 µM on human PPAR-α (setting [5]), 0.3 µM on human PPAR-δ and 51 µM on human PPAR-γ. Also, the “EC50 % improvement over FFA form” value on human PPAR-α (PPAR-α, compared to free fatty acid form) is recorded as 90%; on human PPAR-δ (PPAR-δ, compared to free fatty acid form) it was 89%; at human PPAR-γ (PPAR-γ, compared to free fatty acid form), greater than 49%. In addition, the “PPAR-γ agonist activity (in words)” value on human PPAR-γ (compared to the free fatty acid form) is recorded as “acquired PPAR-γ agonist activity”.

Consider `CCCCCCCCCCCCCC(=O)O` [C14:0, myristic acid], for which the EC50 is 8.35 µM on human PPAR-α (EC50, PPAR-alpha, Table 4); 8.4 µM on human PPAR-α (setting [5]); greater than 100 µM on human PPAR-γ.
